According to article PMC3961306, “Comparison of the Cancer Gene Targeting and Biochemical Selectivities of All Targeted Kinase Inhibitors Approved for Clinical Use” (PLoS ONE, 2014):

How the values were obtained:
Experiment in all cases: Kinase profiling in a biochemical assay panel (mobility shift assays and ELISA), %-inhibition at 1 μM; selectivity entropy
[1] = target: panel of more than 300 wild-type and mutant kinases (313 kinase panel) (Homo sapiens, UniProt Q05655)
[2] = target: T1, panel of more than 300 wild-type and mutant kinases (313 kinase panel) (Homo sapiens, UniProt Q9BXA7); conditions: kinase TSSK1; 1 μM
T1 sequence (Q9BXA7 1-367): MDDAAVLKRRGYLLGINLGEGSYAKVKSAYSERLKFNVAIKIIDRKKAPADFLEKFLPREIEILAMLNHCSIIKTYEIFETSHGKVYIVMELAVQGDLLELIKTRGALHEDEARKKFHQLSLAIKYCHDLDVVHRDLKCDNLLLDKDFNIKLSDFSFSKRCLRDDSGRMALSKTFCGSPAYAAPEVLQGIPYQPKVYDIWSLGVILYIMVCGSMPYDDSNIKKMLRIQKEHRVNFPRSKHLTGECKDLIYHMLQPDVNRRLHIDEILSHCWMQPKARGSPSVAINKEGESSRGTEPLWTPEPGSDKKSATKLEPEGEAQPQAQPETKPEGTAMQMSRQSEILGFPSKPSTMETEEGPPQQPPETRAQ

[3] = target: panel of more than 300 wild-type and mutant kinases (313 kinase panel) (Homo sapiens, UniProt Q14012); conditions: kinase CaMK1α; 1 μM compound
[4] = target: panel of more than 300 wild-type and mutant kinases (313 kinase panel) (Homo sapiens, UniProt P80192); conditions: kinase MLK1; 1 μM
[5] = target: T2, panel of more than 300 wild-type and mutant kinases (313 kinase panel) (Homo sapiens, UniProt P30530)
T2 sequence (P30530 26-894): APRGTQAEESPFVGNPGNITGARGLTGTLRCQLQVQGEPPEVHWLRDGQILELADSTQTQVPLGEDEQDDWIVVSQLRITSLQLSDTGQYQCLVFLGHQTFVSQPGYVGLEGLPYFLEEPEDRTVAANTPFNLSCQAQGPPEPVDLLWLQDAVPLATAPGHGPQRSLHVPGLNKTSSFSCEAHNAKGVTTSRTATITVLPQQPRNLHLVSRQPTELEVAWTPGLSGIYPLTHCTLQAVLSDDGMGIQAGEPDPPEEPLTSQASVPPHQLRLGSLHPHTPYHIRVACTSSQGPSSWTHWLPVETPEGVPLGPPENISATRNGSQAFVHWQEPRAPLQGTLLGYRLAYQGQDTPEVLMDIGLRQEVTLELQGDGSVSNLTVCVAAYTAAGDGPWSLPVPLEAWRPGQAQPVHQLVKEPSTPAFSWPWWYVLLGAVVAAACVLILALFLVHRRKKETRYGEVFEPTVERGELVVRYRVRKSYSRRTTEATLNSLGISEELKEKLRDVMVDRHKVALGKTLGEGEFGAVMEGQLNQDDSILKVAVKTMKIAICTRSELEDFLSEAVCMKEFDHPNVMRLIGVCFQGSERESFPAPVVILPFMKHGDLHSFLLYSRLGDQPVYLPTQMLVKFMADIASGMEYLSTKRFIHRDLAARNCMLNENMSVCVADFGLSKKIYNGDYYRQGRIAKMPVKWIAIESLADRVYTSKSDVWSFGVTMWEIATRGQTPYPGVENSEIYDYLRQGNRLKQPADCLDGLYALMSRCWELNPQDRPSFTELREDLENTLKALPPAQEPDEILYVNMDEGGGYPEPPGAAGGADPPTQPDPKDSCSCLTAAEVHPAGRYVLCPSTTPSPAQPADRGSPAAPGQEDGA

[6] = target: panel of more than 300 wild-type and mutant kinases (313 kinase panel) (Homo sapiens, UniProt Q9UM73, L1196M); conditions: kinase ALK(L1196M); 1 μM compound
[7] = target: panel of more than 300 wild-type and mutant kinases (313 kinase panel) (Homo sapiens, UniProt P22607); conditions: kinase FGFR3; compound at 1 μM
[8] = target: panel of more than 300 wild-type and mutant kinases (313 kinase panel) (Homo sapiens, UniProt P68400); conditions: kinase CK2α1/β; 1 μM compound
[9] = target: panel of more than 300 wild-type and mutant kinases (313 kinase panel) (Homo sapiens, UniProt P16234)
[10] = target: T3, panel of more than 300 wild-type and mutant kinases (313 kinase panel) (Homo sapiens, UniProt P52564)
T3 sequence (P52564 1-334): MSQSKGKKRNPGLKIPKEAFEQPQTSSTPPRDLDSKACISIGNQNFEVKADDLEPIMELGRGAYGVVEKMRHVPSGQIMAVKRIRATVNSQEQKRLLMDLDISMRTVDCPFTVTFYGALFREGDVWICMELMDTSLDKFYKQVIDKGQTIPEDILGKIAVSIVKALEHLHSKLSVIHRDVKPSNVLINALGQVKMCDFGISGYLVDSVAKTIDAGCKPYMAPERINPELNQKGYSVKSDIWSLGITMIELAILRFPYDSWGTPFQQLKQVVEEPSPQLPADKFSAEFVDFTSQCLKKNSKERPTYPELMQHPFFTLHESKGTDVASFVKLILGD

[11] = target: panel of more than 300 wild-type and mutant kinases (313 kinase panel) (Homo sapiens, UniProt P09769); conditions: kinase FGR; compound at 1 μM
[12] = target: panel of more than 300 wild-type and mutant kinases (313 kinase panel) (Homo sapiens, UniProt P42684)
[13] = kinase MAP2K6, compound at 1 μM

| Compound | %-inhibition of PKCδ ([1]; kinase PKCδ, 1 μM) | %-inhibition of TSSK1 [2] | %-inhibition, CaMK1α [3] | %-inhibition of MLK1 [4] | %-inhibition, AXL ([5]; kinase AXL, 1 μM compound) | %-inhibition, ALK(L1196M) [6] | %-inhibition of FGFR3 [7] | %-inhibition, CK2α1/β [8] | %-inhibition of PDGFRα ([9]; kinase PDGFRα, 1 μM) | %-inhibition of MAP2K6 [10, 13] | %-inhibition of FGR [11] | %-inhibition, ARG ([12]; kinase ARG, 1 μM compound) | %-inhibition, AXL ([5]; 1 µM) | %-inhibition of PDGFRα ([9]; 1 µM) | %-inhibition of MAP2K6 ([10]; 1 µM) | %-inhibition of PKCδ ([1]; 1 µM) | %-inhibition, ARG ([12]; 1 µM) |
| --- | --- | --- | --- | --- | --- | --- | --- | --- | --- | --- | --- | --- | --- | --- | --- | --- | --- |
| COc1cc2nccc(Oc3ccc(NC(=O)C4(C(=O)Nc5ccc(F)cc5)CC4)cc3)c2cc1OC [cabozantinib] | -0.835% | -1.49% | -0.897% | 20% | 100% | 4.25% | 8% | -2.76% | 100% | 83% | 94% | 29% |  |  |  |  |  |
| CO[C@H]1C[C@@H]2CC[C@@H](C)[C@@](O)(O2)C(=O)C(=O)N2CCCC[C@H]2C(=O)O[C@H]([C@H](C)C[C@@H]2CC[C@@H](OCCO)[C@H](OC)C2)CC(=O)[C@H](C)/C=C(\C)[C@@H](O)[C@@H](OC)C(=O)[C@H](C)C[C@H](C)/C=C/C=C/C=C/1C [everolimus] | -10% | -6% | -8% | 5% | -1.68% | -3.63% | -9% | -4.26% | 1.15% | 13% | 1% | 1.07% |  |  |  |  |  |
| O=S(=O)(c1cccc2cnccc12)N1CCCNCC1 [fasudil] | 19% | 26% | -5.45% | 3.31% | 2.62% | -4% | -2% | -4% | 16% | 2.2% | -4.71% | -7% |  |  |  |  |  |
| CS(=O)(=O)CCNCc1ccc(-c2ccc3ncnc(Nc4ccc(OCc5cccc(F)c5)c(Cl)c4)c3c2)o1 [lapatinib] | -1.67% | -3.21% | 8% | 7% |  | -3% | 0.327% | -1.7% |  |  | 10% | 11% | 19% | 40% | 9% |  |  |
| Cc1cn(-c2cc(NC(=O)c3ccc(C)c(Nc4nccc(-c5cccnc5)n4)c3)cc(C(F)(F)F)c2)cn1 [nilotinib] |  | -2.32% | -15% | -12% | -4.75% | -42% | -11% | 3.23% |  | 84% | 55% |  |  | 103% |  | -14% | 95% |
| CNC(=O)c1cc(Oc2ccc(NC(=O)Nc3ccc(Cl)c(C(F)(F)F)c3)c(F)c2)ccn1 [regorafenib] | 2.2% | -7% | -6% | -7% | 29% | 0.358% | 97% | -9% | 102% | 93% | 56% | 35% |  |  |  |  |  |
| CO[C@H]1C[C@@H]2CC[C@@H](C)[C@@](O)(O2)C(=O)C(=O)N2CCCC[C@H]2C(=O)O[C@H]([C@H](C)C[C@@H]2CC[C@@H](OC(=O)C(C)(CO)CO)[C@H](OC)C2)CC(=O)[C@H](C)/C=C(\C)[C@@H](O)[C@@H](OC)C(=O)[C@H](C)C[C@H](C)/C=C/C=C/C=C/1C [temsirolimus] | -4% | -7% | -6.61% | 7.48% | -1.78% | -2.81% | -5% | -6.65% | 3.45% | 15% | -3% | -1.55% |  |  |  |  |  |
